In US20240150356A1, “Pyrimidine amide compounds and use thereof” (ALPHALA CO., LTD., priority 2019, published 2024):
Like-named read-outs stand apart in the source and are kept apart here.

Tests used:
Format in all cases: cell-based
[1] = tested on: NCI-H460 (human lung cancer cell line); assay: In vitro MTS cell viability assay (NCI-60 methodology), NCI-H460; settings: NCI-H460 cells, read-out: NCI-H460 LC50
How it was run: (§1)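 NCI-60 style: compound added 24 h post-plating at five 2-fold dilutions plus DMSO control, then 2 days' incubation, MTS read-out. Time-zero plate gives Tz; LC50 is the concentration where [(Ti−Tz)/Tz]×100=−50.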

[2] = tested on: SW480 (colon adenocarcinoma cell line); assay: In vitro MTS cell viability assay (NCI-60 methodology), SW480; settings: Homo sapiens, SW480 cells, read-out: SW480 LC50
How it was run: as §1

[3] = tested on: Hep3B cells (hepatocellular carcinoma cell line); assay: In vitro MTS cell viability assay (NCI-60 methodology), Hep3B; settings: Homo sapiens, 48 h, 2 days drug incubation, 50% reduction vs time zero, read-out: Hep3B LC50
How it was run: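 Following NCI-60 method, MTS viability of Hep3B measured 24 h after plating (time zero) and after a further 2-day exposure to five concentrations (2-fold series). LC50 defined where [(Ti−Tz)/Tz]×100 = −50.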

In the case of `O=C(Nc1nc(-c2ccc(Cl)cc2F)nc2c1cnn2-c1ccccc1)c1ccc([N+](=O)[O-])s1` [Compound 5-47, N-(6-(4-chloro-2-fluorophenyl)-1-phenyl-1H-pyrazolo[3,4-d]pyrimidin-4-yl)-5-nitrothiophene-2-carboxamide], the CC50 [1] is reported as 290 nM, the CC50 [2] is reported as 610 nM and the LC50 ([3]; Table 5, MTS) is reported as 130 nM.

With `COCCOc1ccc(-c2nc(NC(=O)c3ccc([N+](=O)[O-])s3)c3cnn(-c4ccc(F)cc4)c3n2)cn1` [Compound 6-135, N-(1-(4-fluorophenyl)-6-(6-(2-methoxyethoxy)pyridin-3-yl)-1H-pyrazolo[3,4-d]pyrimidin-4-yl)-5-nitrothiophene-2-carboxamide] the CC50 [1] was 560 nM, the CC50 [2] was 690 nM and the LC50 ([3]; Table 6, MTS) was 220 nM.

`O=C(Nc1nc(-c2cccc(Cl)c2)nc2c1cnn2-c1ccccc1)c1ccc([N+](=O)[O-])s1` [Compound 5-29, N-(6-(3-chlorophenyl)-1-phenyl-1H-pyrazolo[3,4-d]pyrimidin-4-yl)-5-nitrothiophene-2-carboxamide] gave a CC50 [1] of 950 nM, a CC50 [2] of 660 nM and an LC50 ([3]; Table 5, MTS) of 210 nM.

In the case of `COc1ccc(-n2ncc3c(NC(=O)c4ccc([N+](=O)[O-])s4)nc(-c4ccc(F)nc4)nc32)cc1` [Compound 6-19, N-(6-(6-fluoropyridin-3-yl)-1-(4-methoxyphenyl)-1H-pyrazolo[3,4-d]pyrimidin-4-yl)-5-nitrothiophene-2-carboxamide], the CC50 [1] is reported as 220 nM, the CC50 [2] is reported as 450 nM and the LC50 ([3]; Table 6, MTS) is reported as 60 nM.

For `COc1ccc(-n2ncc3c(NC(=O)c4ccc([N+](=O)[O-])s4)nc(-c4ccc(F)cc4)nc32)cc1` [Compound 6-18, N-(6-(4-fluorophenyl)-1-(4-methoxyphenyl)-1H-pyrazolo[3,4-d]pyrimidin-4-yl)-5-nitrothiophene-2-carboxamide], the CC50 [1] was 270 nM, the CC50 [2] was 1240 nM and the LC50 ([3]; Table 6, MTS) was 180 nM.

Work on `COc1ccc(-c2nc(NC(=O)c3ccc([N+](=O)[O-])s3)c3cnn(-c4ccccc4)c3n2)cn1` [Compound 5-35, N-(6-(6-methoxypyridin-3-yl)-1-phenyl-1H-pyrazolo[3,4-d]pyrimidin-4-yl)-5-nitrothiophene-2-carboxamide] yielded a CC50 [1] of 650 nM, a CC50 [2] of 1110 nM and an LC50 ([3]; Table 5, MTS) of 180 nM.

For `O=C(Nc1nc(-c2ccc(F)cc2)nc2c1cnn2-c1ccc(F)cc1)c1ccc([N+](=O)[O-])s1` [Compound 6-115, N-(1,6-bis(4-fluorophenyl)-1H-pyrazolo[3,4-d]pyrimidin-4-yl)-5-nitrothiophene-2-carboxamide], the CC50 [1] was 1130 nM, the CC50 [2] was 1910 nM and the LC50 ([3]; Table 6, MTS) was 220 nM.

For `O=C(Nc1nc(-c2ccc(Cl)nc2)nc2c1cnn2-c1ccccc1)c1ccc([N+](=O)[O-])s1` [Compound 5-31, N-(6-(6-chloropyridin-3-yl)-1-phenyl-1H-pyrazolo[3,4-d]pyrimidin-4-yl)-5-nitrothiophene-2-carboxamide], the CC50 [1] was 410 nM, the CC50 [2] was 860 nM and the LC50 ([3]; Table 5, MTS) was 100 nM.

`CC(C)(C)c1ccc(-n2ncc3c(NC(=O)c4ccc([N+](=O)[O-])s4)nc(N4CCC(F)(F)C4)nc32)cc1` [Compound 6-66, N-(1-(4-(tert-butyl)phenyl)-6-(3,3-difluoropyrrolidin-1-yl)-1H-pyrazolo[3,4,d]pyrimidin-4-yl)-5-nitrothiophene-2-carboxamide] showed a CC50 [1] of 410 nM, a CC50 [2] of over 10000 nM and an LC50 ([3]; Table 6, MTS) of 130 nM.

`O=C(Nc1nc(-c2ccc(Cl)nc2)nc2c1cnn2C1CCCCC1)c1ccc([N+](=O)[O-])s1` [Compound 10-18, N-(6-(6-chloropyridin-3-yl)-1-cyclohexyl-1H-pyrazolo[3,4-d]pyrimidin-4-yl)-5-nitrothiophene-2-carboxamide] showed a CC50 [1] of 850 nM, a CC50 [2] of 950 nM and an LC50 ([3]; Table 10, MTS) of 680 nM.

`O=C(Nc1nc(-c2ccc(Cl)nc2)nc2c1cnn2C1CCC(F)(F)CC1)c1ccc([N+](=O)[O-])s1` [Compound 10-57, N-(6-(6-chloropyridin-3-yl)-1-(4,4-difluorocyclohexyl)-TH-pyrazolo[3,4-d]pyrimidin-4-yl)-5-nitrothiophene-2-carboxamide] showed a CC50 [1] of 1300 nM, a CC50 [2] of 1340 nM and an LC50 ([3]; Table 10, MTS) of 570 nM.

For `O=C(Nc1nc(N2CCC(F)(F)C2)nc2c1cnn2-c1ccccc1)c1ccc([N+](=O)[O-])s1` [Compound 5-6, N-(6-(3,3-difluoropyrrolidin-1-yl)-1-phenyl-1H-pyrazolo[3,4-d]pyrimidin-4-yl)-5-nitrothiophene-2-carboxamide], the CC50 [1] was 1460 nM, the CC50 [2] was 1960 nM and the LC50 ([3]; Table 5, MTS) was 530 nM.

In the case of `CN(C)CCOc1ccc(-c2nc(NC(=O)c3ccc([N+](=O)[O-])s3)c3cnn(-c4ccc(F)cc4)c3n2)cn1` [Compound 6-130, N-(6-(6-(2-(dimethylamino)ethoxy)pyridin-3-yl)-1-(4-fluorophenyl)-1H-pyrazolo[3,4-d]pyrimidin-4-yl)-5-nitrothiophene-2-carboxamide], the CC50 [1] is reported as 3810 nM, the CC50 [2] is reported as 2900 nM and the LC50 ([3]; Table 6, MTS) is reported as 260 nM.

`O=C(Nc1nc(-c2ccc(F)nc2)nc2c1cnn2-c1cccc(F)c1)c1ccc([N+](=O)[O-])s1` [Compound 6-90, N-(1-(3-fluorophenyl)-6-(6-fluoropyridin-3-yl)-1H-pyrazolo[3,4-d]pyrimidin-4-yl)-5-nitrothiophene-2-carboxamide] showed a CC50 [1] of 560 nM, a CC50 [2] of 540 nM and an LC50 ([3]; Table 6, MTS) of 140 nM.

Compound `CCOc1ccc(-c2nc(NC(=O)c3ccc([N+](=O)[O-])s3)c3cnn(C4CCCCC4)c3n2)cn1` [Compound 10-23, N-(1-cyclohexyl-6-(6-ethoxypyridin-3-yl)-1H-pyrazolo[3,4-d]pyrimidin-4-yl)-5-nitrothiophene-2-carboxamide] has a CC50 [1] of 3010 nM, a CC50 [2] of 1660 nM and an LC50 ([3]; Table 10, MTS) of 570 nM.

`O=C(Nc1nc(-c2ccc(Cl)cc2)nc2c1cnn2-c1ccccc1)c1ccc([N+](=O)[O-])s1` [Compound 5-30, N-(6-(4-chlorophenyl)-1-phenyl-1H-pyrazolo[3,4-d]pyrimidin-4-yl)-5-nitrothiophene-2-carboxamide] was tested, and the CC50 [1] was 540 nM, the CC50 [2] was 2690 nM and the LC50 ([3]; Table 5, MTS) was 350 nM.

`O=C(Nc1nc(-c2cccc(Cl)c2)nc2c1cnn2-c1ccc(F)cc1)c1ccc([N+](=O)[O-])s1` [Compound 6-117, N-(6-(3-chlorophenyl)-1-(4-fluorophenyl)-1H-pyrazolo[3,4-d]pyrimidin-4-yl)-5-nitrothiophene-2-carboxamide] was tested, and the CC50 [1] was 600 nM, the CC50 [2] was 910 nM and the LC50 ([3]; Table 6, MTS) was 150 nM.

`O=C(Nc1nc(-c2ccc(Cl)cc2)nc2c1cnn2-c1ccc(F)cc1)c1ccc([N+](=O)[O-])s1` [Compound 6-118, N-(6-(chlorophenyl)-1-(4-fluorophenyl)-1H-pyrazolo[3,4-d]pyrimidin-4-yl)-5-nitrothiophene-2-carboxamide] showed a CC50 [1] of 980 nM, a CC50 [2] of 2180 nM and an LC50 ([3]; Table 6, MTS) of 250 nM.

For `O=C(Nc1nc(-c2cccc(F)c2)nc2c1cnn2-c1ccc(F)cc1)c1ccc([N+](=O)[O-])s1` [Compound 6-114, N-(6-(3-fluorophenyl)-1-(4-fluorophenyl)-1H-pyrazolo[3,4-d]pyrimidin-4-yl)-5-nitrothiophene-2-carboxamide], the CC50 [1] was 350 nM, the CC50 [2] was 840 nM and the LC50 ([3]; Table 6, MTS) was 200 nM.

Work on `Cc1ccc(-n2ncc3c(NC(=O)c4ccc([N+](=O)[O-])s4)nc(-c4ccc(F)cc4F)nc32)cc1` [Compound 6-11] yielded a CC50 [1] of 330 nM, a CC50 [2] of 670 nM and an LC50 ([3]; Table 6, MTS) of 280 nM.

With `CC(C)(C)c1ccc(-n2ncc3c(NC(=O)c4ccc([N+](=O)[O-])s4)nc(-n4cccn4)nc32)cc1` [Compound 6-75, N-(1-(4-tert-butyl)phenyl)-6-(4-(1H-pyrazol-1-yl)-1H-pyrazolo[3,4-d]pyrimidin-4-yl)-5-nitrothiophene-2-carboxamide] the CC50 [1] was 1280 nM, the CC50 [2] was 5480 nM and the LC50 ([3]; Table 6, MTS) was 240 nM.

Compound `O=C(Nc1nc(-c2ccc(Cl)cc2Cl)nc2c1cnn2-c1ccccc1)c1ccc([N+](=O)[O-])s1` [Compound 5-49] has a CC50 [1] of 1220 nM, a CC50 [2] of 3750 nM and an LC50 ([3]; Table 5, MTS) of 270 nM.

Work on `CCCOc1ccc(-c2nc(NC(=O)c3ccc([N+](=O)[O-])s3)c3cnn(-c4ccc(F)cc4)c3n2)cn1` [Compound 6-133, N-(1-(4-fluorophenyl)-6-(6-propoxypyridin-3-yl)-1H-pyrazolo[3,4-d]pyrimidin-4-yl)-5-nitrothiophene-2-carboxamide] yielded a CC50 [1] of 490 nM, a CC50 [2] of 430 nM and an LC50 ([3]; Table 6, MTS) of 160 nM.

`O=C(Nc1nc(N2CCC[C@H]2COc2ccccc2)nc2c1cnn2-c1ccc(F)cc1)c1ccc([N+](=O)[O-])s1` [Compound 6-106, (S)—N-(1-(4-fluorophenyl)-6-(2-(phenoxymethyl)pyrrolidin-1-yl)-1H-pyrazolo[3,4-d]pyrimidin-4-yl)-5-nitrothiophene-2-carboxamide] showed a CC50 [1] of 1650 nM, a CC50 [2] of 500 nM and an LC50 ([3]; Table 6, MTS) of 430 nM.

For `Cc1ccc(-n2ncc3c(NC(=O)c4ccc([N+](=O)[O-])s4)nc(-c4ccc(F)cc4)nc32)cc1` [Compound 6-4, N-(6-(4-fluorophenyl)-1-(p-tolyl)-1H-pyrazolo[3,4-d]pyrimidin-4-yl)-5-nitrothiophene-2-carboxamide], the CC50 [1] was 680 nM, the CC50 [2] was 1510 nM and the LC50 ([3]; Table 6, MTS) was 280 nM.
